# Tests used:
# Format in all cases: physicochemical
# [1] = Dynamic vapor sorption (DVS) of Sample 4
# Source text: Prior to any testing, Sample 4 was characterized by XRPD, TGA, DSC, 1HNMR, and DVS. The results are given below in Table-8. The Corresponding figure numbers are given in the right hand column.
# [2] = Thermogravimetric analysis (TGA)
# Procedure: TGA data were collected on a TA Instruments Q500 TGA, equipped with a 16-position auto-sampler. The instrument was temperature calibrated using certified Alumel™ and Nickel. Typically 5-10 mg of each sample was loaded onto a pre-tared aluminum DSC pan and heated at 10° C./min from ambient temperature to 350° C. A nitrogen purge at 60 ml/min was maintained over the sample.
# TG analyses were performed using a TA Instruments Q5000 IR thermogravimetric analyzer. Temperature calibration was performed using nickel and Alumel™. Each sample was placed in an aluminum pan. The sample was hermetically sealed, the lid pierced, then inserted into the TG furnace. The furnace was heated under nitrogen.
# [3] = Approximate solubility of Sample 4 by solvent aliquot addition, visual inspection; post-solubility storage; settings: for solubility: thermodynamic from solid
# Procedure: Weighed samples of MRZ, Sample 4 were treated with aliquots of the test solvents or solvent mixtures at ambient temperature. Complete dissolution of the test material was determined by visual inspection. Solubility was estimated based on the total solvent volume used to provide complete dissolution. The actual solubility may be greater than the value calculated because of the use of solvent aliquots that were too large or due to a slow rate of dissolution. If complete dissolution was not achieved during the experiment, the solubility is expressed as “less than”. If complete dissolution was achieved by only one aliquot addition, the value is reported as “larger than”. As set forth in Table-9, the ratio of solvent mixtures are given by volume. Solubilities are estimated at ambient temperature and reported to the nearest mg/mL; if complete dissolution was not achieved, the value is reported as “<”; the actual solubility may be greater than the reported value due to the use of solvent aliquots that were too large or due to a slow rate of dissolution. Post-solubility samples were stored at 2-8° C. for 15-16 days followed by 1 day at ambient storage before visual inspection for precipitation. Post-solubility samples were visually inspected after 2-3 days of ambient storage. Formation system A is: 55% propylene glycol+5% ethanol+40% citrate buffer (10 mM; pH 5). Formation system B is: 14/86 (v/v) H2O/tert-butyl alcohol containing 30 mg/mL sucrose, and titrated with HCl to pH 3.2±0.2.
smiles,measurement,setting,value
"C[C@@]12OC(=O)[C@]1([C@@H](O)[C@@H]1C=CCCC1)NC(=O)[C@@H]2CCCl [Sample 4, marizomib]",DVS weight change,[1]; 5-75% RH,+0.039 wt % (5-75% RH)
same,DVS weight change,[1]; 75-95% RH,+1.158 wt % (75-95% RH)
same,DVS weight change,[1]; 95-5% RH,−1.276 wt % (95-5% RH)
same,DVS weight change,[1]; at 5% RH,−0.035 wt % (at 5% RH)
same,TGA weight loss prior to decomposition,[2],negligible weight loss prior to decomp
same,"TGA (onset, decomp.)",[2]; Sample 4 prior to testing,"168 °C (onset, decomp.)"
same,TGA: decomposition after,[2]; as stated in cocrystal discussion,approximately 150 °C
same,solubility,"[3]; aqueous with cosolvent or surfactant or cyclodextrin, Formulation System A (55% propylene glycol + 5% EtOH + 40% citrate buffer 10 mM pH 5), ambient temperature",< 1 mg/mL
same,solubility,"[3]; aqueous with cosolvent or surfactant or cyclodextrin, Formulation System B (14/86 v/v H2O/tBA, 30 mg/ml sucrose, pH 3.2), ambient temperature",6 mg/mL
same,solubility,"[3]; organic solvent or mixture, 1-propanol, ambient temperature",2 mg/mL
same,solubility,"[3]; organic solvent or mixture, 2,2,2-trifluoroethanol, ambient temperature",< 1 mg/mL
same,solubility,"[3]; organic solvent or mixture, 2-Me THF, ambient temperature",32 mg/mL
same,solubility,"[3]; organic solvent or mixture, 20:80 2-MeTHF/MeOAc (v/v), ambient temperature",34 mg/mL
same,solubility,"[3]; organic solvent or mixture, 20:80 CHCl3/DCM (v/v), ambient temperature",3 mg/mL
same,solubility,"[3]; organic solvent or mixture, 20:80 MEK/IPA (v/v), ambient temperature",10 mg/mL
same,solubility,"[3]; organic solvent or mixture, 20:80 MEK/MIBK (v/v), ambient temperature",12 mg/mL
same,solubility,"[3]; organic solvent or mixture, 20:80 NMP/1-propanol (v/v), ambient temperature",19 mg/mL
same,solubility,"[3]; organic solvent or mixture, 20:80 NMP/IPA (v/v), ambient temperature",19 mg/mL
same,solubility,"[3]; organic solvent or mixture, 20:80 THF/nitromethane (v/v), ambient temperature",15 mg/mL
same,solubility,"[3]; organic solvent or mixture, 25:75 ACN/MTBE (v/v), ambient temperature",10 mg/mL
same,solubility,"[3]; organic solvent or mixture, 25:75 DMF/anisole (v/v), ambient temperature",17 mg/mL
same,solubility,"[3]; organic solvent or mixture, 50:50 EtOAc/cyclohexane (v/v), ambient temperature",4 mg/mL
same,solubility,"[3]; organic solvent or mixture, 50:50 EtOAc/isooctane (v/v), ambient temperature",2 mg/mL
same,solubility,"[3]; organic solvent or mixture, 50:50 MeOH/Et2O (v/v), ambient temperature",21 mg/mL
same,solubility,"[3]; organic solvent or mixture, 50:50 THF/hexanes (v/v), ambient temperature",21 mg/mL
same,solubility,"[3]; organic solvent or mixture, 50:50 acetone/heptane (v/v), ambient temperature",12 mg/mL
same,solubility,"[3]; organic solvent or mixture, 50:50 acetone/iso-octane (v/v), ambient temperature",12 mg/mL
same,solubility,"[3]; organic solvent or mixture, ACN, ambient temperature",10 mg/mL
same,solubility,"[3]; organic solvent or mixture, CHCl3, ambient temperature",2 mg/mL
same,solubility,"[3]; organic solvent or mixture, DCM, ambient temperature",2 mg/mL
same,solubility,"[3]; organic solvent or mixture, DMSO, ambient temperature",> 83 mg/mL
same,solubility,"[3]; organic solvent or mixture, EtOAc, ambient temperature",15 mg/mL
same,solubility,"[3]; organic solvent or mixture, Formic acid, ambient temperature",15 mg/mL
same,solubility,"[3]; organic solvent or mixture, IPA, ambient temperature",6 mg/mL
same,solubility,"[3]; organic solvent or mixture, MEK, ambient temperature",33 mg/mL
same,solubility,"[3]; organic solvent or mixture, MIBK, ambient temperature",11 mg/mL
same,solubility,"[3]; organic solvent or mixture, MeOAc, ambient temperature",20 mg/mL
same,solubility,"[3]; organic solvent or mixture, NMP, ambient temperature",5 mg/mL
same,solubility,"[3]; organic solvent or mixture, THF, ambient temperature",49 mg/mL
same,solubility,"[3]; organic solvent or mixture, [EMIm][Cl], ambient temperature",< 2 mg/mL
same,solubility,"[3]; organic solvent or mixture, [EMIm][NTF2], ambient temperature",1 mg/mL
same,solubility,"[3]; organic solvent or mixture, acetic acid, ambient temperature",10 mg/mL
same,solubility,"[3]; organic solvent or mixture, acetone, ambient temperature",39 mg/mL
same,solubility,"[3]; organic solvent or mixture, anisole, ambient temperature",2 mg/mL
same,solubility,"[3]; organic solvent or mixture, cyclohexanone, ambient temperature",22 mg/mL
same,solubility,"[3]; organic solvent or mixture, dioxane, ambient temperature",20 mg/mL
same,solubility,"[3]; organic solvent or mixture, nitromethane, ambient temperature",2 mg/mL
same,solubility,"[3]; organic solvent or mixture, pyridine, ambient temperature",36 mg/mL
same,solubility,"[3]; organic solvent or mixture, tert-butanol, ambient temperature",3 mg/mL
same,Precipitates formed during storage?,[3]; post-solubility sample in 1-propanol,no
same,Precipitates formed during storage?,[3]; post-solubility sample in 2-Me THF,no
same,Precipitates formed during storage?,[3]; post-solubility sample in 20:80 2-MeTHF/MeOAc,no
same,Precipitates formed during storage?,[3]; post-solubility sample in 20:80 CHCl3/DCM,no
same,Precipitates formed during storage?,[3]; post-solubility sample in 20:80 MEK/IPA,no
same,Precipitates formed during storage?,[3]; post-solubility sample in 20:80 MEK/MIBK,no
same,Precipitates formed during storage?,[3]; post-solubility sample in 20:80 NMP/1-propanol,no
same,Precipitates formed during storage?,[3]; post-solubility sample in 20:80 NMP/IPA,no
same,Precipitates formed during storage?,[3]; post-solubility sample in 20:80 THF/nitromethane,no
same,Precipitates formed during storage?,[3]; post-solubility sample in 25:75 ACN/MTBE,no
same,Precipitates formed during storage?,[3]; post-solubility sample in 25:75 DMF/anisole,no
same,Precipitates formed during storage?,[3]; post-solubility sample in 50:50 EtOAc/cyclohexane,no
same,Precipitates formed during storage?,[3]; post-solubility sample in 50:50 EtOAc/isooctane,no
same,Precipitates formed during storage?,[3]; post-solubility sample in 50:50 MeOH/Et2O,no
same,Precipitates formed during storage?,[3]; post-solubility sample in 50:50 THF/hexanes,no
same,Precipitates formed during storage?,[3]; post-solubility sample in 50:50 acetone/heptane,no
same,Precipitates formed during storage?,[3]; post-solubility sample in 50:50 acetone/iso-octane,no
same,Precipitates formed during storage?,[3]; post-solubility sample in ACN,no
same,Precipitates formed during storage?,[3]; post-solubility sample in CHCl3,yes
same,Precipitates formed during storage?,[3]; post-solubility sample in DCM,no
same,Precipitates formed during storage?,[3]; post-solubility sample in DMSO,no
same,Precipitates formed during storage?,[3]; post-solubility sample in EtOAc,no
same,Precipitates formed during storage?,[3]; post-solubility sample in Formic acid,no
same,Precipitates formed during storage?,[3]; post-solubility sample in Formulation System B,no
same,Precipitates formed during storage?,[3]; post-solubility sample in IPA,no
same,Precipitates formed during storage?,[3]; post-solubility sample in MEK,yes (small amount)
same,Precipitates formed during storage?,[3]; post-solubility sample in MIBK,no
same,Precipitates formed during storage?,[3]; post-solubility sample in MeOAc,no
same,Precipitates formed during storage?,[3]; post-solubility sample in NMP,no
same,Precipitates formed during storage?,[3]; post-solubility sample in THF,no
same,Precipitates formed during storage?,[3]; post-solubility sample in acetic acid,no
same,Precipitates formed during storage?,[3]; post-solubility sample in acetone,no
same,Precipitates formed during storage?,[3]; post-solubility sample in anisole,no
same,Precipitates formed during storage?,[3]; post-solubility sample in cyclohexanone,no
same,Precipitates formed during storage?,[3]; post-solubility sample in dioxane,no
same,Precipitates formed during storage?,[3]; post-solubility sample in nitromethane,no
same,Precipitates formed during storage?,[3]; post-solubility sample in pyridine,no
same,Precipitates formed during storage?,[3]; post-solubility sample in tert-butanol,no
